This is an account of results in PMC3320615, “β-Microseminoprotein Endows Post Coital Seminal Plasma with Potent Candidacidal Activity by a Calcium- and pH-Dependent Mechanism” (PLoS Pathogens, 2012).

Assay [1] is described as follows: Liposome leakage (carboxyfluorescein release). The class given is biochemical. To be noted: control experiments with EDTA alone. The method, then:
Subsequently, buffer (10 mM Tris, pH 7.4) was added together with 0.1 M carboxyfluorescein (CF) (Sigma, St Louis, MO). After hydration, the lipid mixture was subjected to eight freeze-thaw cycles consisting of freezing in liquid nitrogen and heating to 60°C. Unilamellar liposomes of about Ø140 nm were generated by multiple extrusions through polycarbonate filters (pore size 100 nm) mounted in a […] (Avestin, Ottawa, Canada) at 22°C. Untrapped CF was then removed by two gel filtrations (Sephadex G-50) at 22°C, with Tris buffer as eluent. CF release was determined by monitoring the emitted fluorescence at 520 nm from liposome dispersions (10 mM lipid in 10 mM Tris). An absolute leakage scale was obtained by disrupting the liposomes at the end of the experiment through addition of 0.8 mM Triton X100 (Sigma, St Louis, MO), causing 100% release and dequenching of CF. Although calcein is frequently used for pH-dependent leakage studies, the high charge of this dye has been noted to influence its leakage behavior in the presence of highly cationic peptides. Instead, therefore, CF was used as a leakage marker at both pH 6.0 and 7.4, avoiding pH-dependent fluorescence effects through neutralization prior to probing the limiting leakage in case of pH 6.0 leakage. Throughout, a SPEX-fluorolog 1650 0.22-m double spectrometer (SPEX Industries, Edison, NJ) was used for the liposome leakage assay. Measurements were performed in at least triplicate at 37°C.

The subject of assay [2] is Candida albicans ATCC 90028. Description: CFU assay with C. albicans. Type of assay: cell-based. To be noted: for Estimate (difference between means of log values): control - treatment. From the text: Candida albicans strains: ATCC 90028, CAF-1-2, SC5814, BM4f35II68, vaginal clinical isolates from Dept. of Clincal Microbiology, Skåne University Hospital, SO_303369 and SO_503471. Candida parapsilosis strains: ATCC 90018, BD1800, BD17837, and BM24/68/09. Candida glabrata strains: ATCC 90030, clinical isolates from Dept. of Clincal Microbiology, Skåne University Hospital, SO_3336, SO_3400 and SO_503413. All strains were inoculated from frozen culture and grown in Yeast extract-Peptone-Dextrose (YPD) (Sigma) and on Sabourand Dextrose Broth (SAB) (Difco) plates at 30°C with 5% (v/v) CO2. If not otherwise stated, ATCC 90028 was used for candidacidal experiments.
Candida albicans was grown over night, washed, and resuspended in 10 mM Tris, 5 mM glucose, pH 7.4 or pH 4. Approximately 4×10^3 to 10^4 CFU of C. albicans were incubated with the test substance in low or neutral pH buffer for 4 h at 37°C. After incubation, the suspension was diluted and plated. Colonies were counted after two days incubation of the plates at 30°C. Bacteria from overnight cultures were inoculated in fresh medium and grown for 3 h, washed in 10 mM Tris, 5 mM glucose pH 7.4. Approximately 8×10^4 CFU were incubated with sample in 10 mM Tris, 5 mM glucose pH 7.4 or pH 4 for 1 h at 37°C, diluted, plated and incubated over night at 37°C and the colonies counted.
Statistical analysis was performed using SAS 9.2 software (SAS Institute, Cary, NC). Colony counts were log transformed. In order to choose the statistical method, interactions between the Treatment and Experiment were investigated. Treatments were screened by doing pair wise comparisons of each treatment to a control. Statistical tests used for the comparisons included MIXED procedure and LSMEANS statement. All tests where P-value<.05 were considered to indicate statistical significance. P-values were not adjusted for the multiple comparisons.
“Estimate” is the estimate of the difference between means of log values of treatment 1 and treatment 2

[3] abbreviates: 5 µM, pH 4, with EDTA, experiment 1.
[4] abbreviates: 5 µM, pH 4, with EDTA, experiment 2.
[5] abbreviates: 5 µM, pH 4, with EDTA, experiment 3.
The mark [6] stands for this setting: 5 µM, pH 4, without EDTA, experiment 1.
The mark [7] stands for this setting: 5 µM, pH 4, without EDTA, experiment 2.
[8] abbreviates: 5 µM, pH 4, without EDTA, experiment 3.

Turning to `O=C(O)CN(CCN(CC(=O)O)CC(=O)O)CC(=O)O` [EDTA, reference compound], the Liposome rupture result in assay [1] is “no liposome rupture”. Also, the “Estimate (difference between means of log values)” value in assay [2] (25 µM, pH 4, experiment 1) is recorded as 0.3309; in assay [2] (25 µM, pH 4, experiment 2) it was -0.2077; in assay [2] (25 µM, pH 4, experiment 3), -0.01878.
Take “EISCCTLVSTPVGYDKDNCQ [MSP4, synthetic MSP-derived peptide]”: the “Estimate (difference between means of log values)” value in assay [2] (setting [3]) is -0.3731; in assay [2] (setting [4]), -0.4012; in assay [2] (setting [5]) it was -0.1411; in assay [2] (setting [6]) it was -0.5304; in assay [2] (setting [7]), -0.8100; in assay [2] (setting [8]), -0.2155.
As for “EWQTDNCETCTCYETEISCC [MSP3, synthetic MSP-derived peptide]”, the “Estimate (difference between means of log values)” value in assay [2] (setting [3]) is 0.09392; in assay [2] (setting [4]), 0.05166; in assay [2] (setting [5]), -0.02824; in assay [2] (setting [6]), -0.2487; in assay [2] (setting [7]), -0.7316; in assay [2] (setting [8]), -0.09956.
With “IVVEKKDPKKTCSVSEWII [MSP6, synthetic MSP-derived peptide]”, the “Estimate (difference between means of log values)” value in assay [2] (setting [3]) was 1.6087; in assay [2] (setting [4]), 3.2325; in assay [2] (setting [5]), 0.6931; in assay [2] (setting [6]), -0.00322; in assay [2] (setting [7]), 0.07848; in assay [2] (setting [8]), 0.9139.
For the compound “KDNCQRIFKKEDCKYIVVEK [MSP5, synthetic MSP-derived peptide encompassing residues 61–80]”, the “Fungicidal activity in CFU assay (rank among overlapping peptides)” value in assay [2] (5 µM, pH 4) is recorded as “highest fungicidal activity of the tested peptides”. Besides, the “Estimate (difference between means of log values)” value in assay [2] (setting [3]) was 2.0492; in assay [2] (setting [4]) it was 4.5365; in assay [2] (setting [5]) it was 3.0952; in assay [2] (setting [6]), 0.5704; in assay [2] (setting [7]) it was 0.3334; in assay [2] (setting [8]), 0.6913.
For LL-37 [reference compound], the “Estimate (difference between means of log values)” value in assay [2] (50 µM LL-37, pH 4, + 50 µM calcium, experiment 1) was 1.6956; in assay [2] (50 µM LL-37, pH 4, + 50 µM calcium, experiment 2), 1.8880; in assay [2] (50 µM LL-37, pH 4, + 75 µM calcium, experiment 1), 1.5909; in assay [2] (50 µM LL-37, pH 4, + 75 µM calcium, experiment 2), 1.5305; in assay [2] (50 µM LL-37, pH 4, + 100 µM calcium, experiment 1), 1.3942; in assay [2] (50 µM LL-37, pH 4, + 100 µM calcium, experiment 2) it was 1.4384. In addition, the “Estimate (difference between means of log values)” value in assay [2] (50 µM LL-37, pH 4, + 200 µM calcium, experiment 1) is 1.3064; in assay [2] (50 µM LL-37, pH 4, + 200 µM calcium, experiment 2) it was 1.4253; in assay [2] (50 µM LL-37, pH 4, no calcium, experiment 1), 1.6339; in assay [2] (50 µM LL-37, pH 4, no calcium, experiment 2), 2.4025; in assay [2] (50 µM LL-37, pH 7.4, + 50 µM calcium, experiment 1), 2.0757; in assay [2] (50 µM LL-37, pH 7.4, + 50 µM calcium, experiment 2) it was 2.0565. Moreover, the “Estimate (difference between means of log values)” value in assay [2] (50 µM LL-37, pH 7.4, + 50 µM calcium, experiment 3) is listed as 2.6878; in assay [2] (50 µM LL-37, pH 7.4, + 75 µM calcium, experiment 1) it was 1.1627; in assay [2] (50 µM LL-37, pH 7.4, + 75 µM calcium, experiment 2), 2.6753; in assay [2] (50 µM LL-37, pH 7.4, + 75 µM calcium, experiment 3), 2.9703; in assay [2] (50 µM LL-37, pH 7.4, + 100 µM calcium, experiment 1), 1.6404; in assay [2] (50 µM LL-37, pH 7.4, + 100 µM calcium, experiment 2), 2.5186. Besides, the “Estimate (difference between means of log values)” value was 2.6194 in assay [2] (50 µM LL-37, pH 7.4, + 100 µM calcium, experiment 3); 1.4145 in assay [2] (50 µM LL-37, pH 7.4, + 200 µM calcium, experiment 1); 2.7659 in assay [2] (50 µM LL-37, pH 7.4, + 200 µM calcium, experiment 2); 3.5282 in assay [2] (50 µM LL-37, pH 7.4, + 200 µM calcium, experiment 3); 3.2986 in assay [2] (50 µM LL-37, pH 7.4, no calcium, experiment 1); 3.2280 in assay [2] (50 µM LL-37, pH 7.4, no calcium, experiment 2). Further, the “Estimate (difference between means of log values)” value in assay [2] (50 µM LL-37, pH 7.4, no calcium, experiment 3) was 4.0296.
In the case of “RKCMDLKGNKHPINSEWQTD [MSP2, synthetic MSP-derived peptide]”, the “Estimate (difference between means of log values)” value in assay [2] (setting [3]) is given as 0.5727; in assay [2] (setting [4]), 0.2951; in assay [2] (setting [5]) it was 0.5877; in assay [2] (setting [6]) it was -0.4638; in assay [2] (setting [7]) it was -0.7678; in assay [2] (setting [8]) it was 0.2466.
Take “SCYFIPNEGVPGDSTRKCMD [MSP1, synthetic MSP-derived peptide]”: the “Estimate (difference between means of log values)” value in assay [2] (setting [3]) is -0.3564; in assay [2] (setting [4]), -0.5558; in assay [2] (setting [5]) it was -0.1369; in assay [2] (setting [6]), -0.6949; in assay [2] (setting [7]), -0.6938; in assay [2] (setting [8]), -0.2057.
As for “TNKCQKILNKKTCTYTVVEK [PMSP, peptide from porcine MSP corresponding to human MSP61–80]”, the “Effect of calcium and magnesium on antifungal activity” value in assay [2] (data not shown) is given as “inhibited by calcium but not magnesium”. Also, the “Fungicidal activity compared with human MSP61–80” value in assay [2] (pH 4, with and without EDTA, Figure S4) is “even higher fungicidal activity than its human counterpart”. In addition, the “Difference of mean colony counts between control and treatment” value in assay [2] (pH 4, with and without EDTA, three independent experiments) is listed as “Significant difference (reduction)”.
